The values below come from ChEMBL document CHEMBL5214888, “The new opportunities in medicinal chemistry of fourth-generation EGFR inhibitors to overcome C797S mutation” (Eur J Med Chem, 2021).

Data set [1] addresses T1, Epidermal growth factor receptor (Homo sapiens, UniProt P00533, L858R/T790M). As to the kind of experiment: Inhibition of human GST-tagged EGFR L858R/T790M mutant expressed in Sf9 cells assessed as substrate phosphorylation using TK-peptide as substrate incubated for 20 mins by HTRF assay.
In data set [2] the target is T2, Epidermal growth factor receptor (Homo sapiens, UniProt P00533). The experiment in a line: Inhibition of human wild type GST-tagged EGFR expressed in Sf9 cells assessed as substrate phosphorylation using TK-peptide as substrate incubated for 25 mins by HTRF assay.
T2 sequence (P00533 whole entry): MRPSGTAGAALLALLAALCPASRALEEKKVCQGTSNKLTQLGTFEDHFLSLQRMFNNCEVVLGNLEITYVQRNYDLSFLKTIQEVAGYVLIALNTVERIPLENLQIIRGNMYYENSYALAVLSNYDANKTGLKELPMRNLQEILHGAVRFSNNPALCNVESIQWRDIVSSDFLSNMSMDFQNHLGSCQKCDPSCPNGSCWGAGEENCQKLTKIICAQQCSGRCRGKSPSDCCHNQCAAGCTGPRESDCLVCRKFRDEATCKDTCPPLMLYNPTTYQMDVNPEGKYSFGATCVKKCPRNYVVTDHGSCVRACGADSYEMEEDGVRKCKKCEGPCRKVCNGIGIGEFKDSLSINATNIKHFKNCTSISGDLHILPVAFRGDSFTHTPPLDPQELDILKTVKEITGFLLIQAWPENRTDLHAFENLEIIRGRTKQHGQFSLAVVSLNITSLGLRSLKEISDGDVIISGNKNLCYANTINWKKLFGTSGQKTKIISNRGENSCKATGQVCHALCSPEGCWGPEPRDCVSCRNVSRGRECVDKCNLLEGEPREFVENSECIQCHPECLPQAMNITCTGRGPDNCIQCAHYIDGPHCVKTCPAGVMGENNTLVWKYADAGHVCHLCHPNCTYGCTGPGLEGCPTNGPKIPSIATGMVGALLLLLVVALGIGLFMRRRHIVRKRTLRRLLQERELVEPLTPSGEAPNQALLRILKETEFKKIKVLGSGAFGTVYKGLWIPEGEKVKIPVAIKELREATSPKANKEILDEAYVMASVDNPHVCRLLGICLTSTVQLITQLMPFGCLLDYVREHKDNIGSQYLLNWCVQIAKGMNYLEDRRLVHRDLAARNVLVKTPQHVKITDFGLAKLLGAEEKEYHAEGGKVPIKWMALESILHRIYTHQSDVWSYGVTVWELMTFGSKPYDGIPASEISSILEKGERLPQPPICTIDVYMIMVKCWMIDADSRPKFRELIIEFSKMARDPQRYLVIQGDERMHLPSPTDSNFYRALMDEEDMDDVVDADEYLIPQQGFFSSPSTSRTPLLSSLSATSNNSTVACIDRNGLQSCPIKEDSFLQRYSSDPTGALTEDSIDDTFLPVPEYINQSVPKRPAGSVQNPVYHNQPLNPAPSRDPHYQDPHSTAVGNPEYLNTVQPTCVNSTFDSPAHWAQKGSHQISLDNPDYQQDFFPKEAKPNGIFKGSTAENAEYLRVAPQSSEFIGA
The test system of data set [3] is BaF3. As to the kind of experiment: Cytotoxicity against mouse BaF3 cells expressing human EGFR C797S/T790M/del19 mutant assessed as inhibition of in cell viability measured after 72 hrs by CellTiter-Glo assay. It counts as functional, cell-based. Particulars: BaF3, 72 h.
The test system of data set [4] is BaF3. The experiment in a line: Cytotoxicity against mouse BaF3 cells expressing human EGFR C797S/del19 mutant assessed as inhibition of in cell viability measured after 72 hrs by CellTiter-Glo assay. It counts as functional, cell-based. As to conditions: BaF3, 72 h.
Data set [5] concerns PC-9. The experiment in a line: Antiproliferative activity against human PC-9 cells harboring EGFR del19/T790M/C797S mutant assessed as inhibition of cell proliferation. It counts as functional, cell-based.
Data set [6] relates to PC-9. The experiment in a line: Antiproliferative activity against human PC-9 cells harboring EGFR L858R/T790M/C797S mutant assessed as inhibition of cell proliferation. It counts as functional, cell-based.
Data set [7] relates to A549. The experiment in a line: Antiproliferative activity against human A549 assessed as inhibition of cell proliferation. It counts as functional, cell-based.
In data set [8] the test system is PC-9. The experiment in a line: Antiproliferative activity against human PC-9 cells assessed as inhibition of cell proliferation. It counts as functional, cell-based.
In data set [9] the target is T3, Epidermal growth factor receptor (Homo sapiens, UniProt P00533, C797S/L858R/T790M). As to the kind of experiment: Inhibition of human GST-tagged EGFR L858R/T790M/C797S mutant expressed in Sf9 cells assessed as substrate phosphorylation using TK-peptide as substrate incubated for 10 mins by HTRF assay.
T3 sequence (P00533 25-1210 T790M/C797S/L858R limits assumed): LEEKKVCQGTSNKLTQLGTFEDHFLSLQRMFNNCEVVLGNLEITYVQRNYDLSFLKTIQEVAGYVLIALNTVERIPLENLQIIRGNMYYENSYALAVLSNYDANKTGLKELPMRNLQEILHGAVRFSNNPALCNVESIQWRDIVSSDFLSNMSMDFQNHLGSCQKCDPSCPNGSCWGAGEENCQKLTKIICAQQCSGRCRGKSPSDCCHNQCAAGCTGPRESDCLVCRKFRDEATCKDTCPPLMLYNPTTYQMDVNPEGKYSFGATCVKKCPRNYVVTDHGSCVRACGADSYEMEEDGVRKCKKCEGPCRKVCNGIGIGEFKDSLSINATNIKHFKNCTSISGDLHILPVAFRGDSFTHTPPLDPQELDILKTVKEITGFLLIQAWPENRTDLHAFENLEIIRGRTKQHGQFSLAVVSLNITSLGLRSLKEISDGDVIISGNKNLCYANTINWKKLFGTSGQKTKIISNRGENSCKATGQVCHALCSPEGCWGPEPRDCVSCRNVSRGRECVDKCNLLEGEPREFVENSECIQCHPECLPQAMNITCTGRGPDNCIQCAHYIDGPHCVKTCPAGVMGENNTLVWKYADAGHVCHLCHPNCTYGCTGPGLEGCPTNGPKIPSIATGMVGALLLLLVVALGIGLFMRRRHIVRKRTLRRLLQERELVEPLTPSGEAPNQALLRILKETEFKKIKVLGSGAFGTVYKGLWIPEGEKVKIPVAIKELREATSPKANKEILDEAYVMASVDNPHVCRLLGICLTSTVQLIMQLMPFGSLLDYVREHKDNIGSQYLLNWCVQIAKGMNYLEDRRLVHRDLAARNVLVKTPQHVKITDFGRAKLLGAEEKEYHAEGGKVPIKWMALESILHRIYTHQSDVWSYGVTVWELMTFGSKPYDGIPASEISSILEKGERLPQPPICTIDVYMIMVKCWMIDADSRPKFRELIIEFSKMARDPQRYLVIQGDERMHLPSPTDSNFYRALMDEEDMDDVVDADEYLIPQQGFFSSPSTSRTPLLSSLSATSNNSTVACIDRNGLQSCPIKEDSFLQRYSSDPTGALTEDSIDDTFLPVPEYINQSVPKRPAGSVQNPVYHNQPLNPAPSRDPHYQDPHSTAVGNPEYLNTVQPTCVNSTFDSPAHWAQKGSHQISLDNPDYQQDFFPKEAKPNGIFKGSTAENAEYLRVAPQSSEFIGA
Data set [10] addresses T3, Epidermal growth factor receptor. As to the kind of experiment: Inhibition of EGFR L858R/T790M/C797S mutant (unknown origin).
Data set [11] deals with T4, Epidermal growth factor receptor (Homo sapiens, UniProt P00533, C797S/EX19DEL/T790M). The experiment in a line: Inhibition of human EGFR del19/T790M/C797S mutant using ATP-labelled peptide substrate by HTRF assay.
T4 sequence (P00533 whole entry, looked up, stated change not applied): as the sequence (P00533 whole entry) above
Data set [12] deals with BaF3. The experiment in a line: Antiproliferative activity against mouse BaF3 cells harboring EGFR del19/T790M/C797S triple mutant assessed as inhibition of cell proliferation by celltiter-Glo assay. It counts as functional, cell-based.
For data set [13], the target named is T4, Epidermal growth factor receptor. The experiment in a line: Inhibition of EGFR del19/T790M/C797S triple mutant (unknown origin) phosphorylation expressed in mouse BaF3 cells by fluorescence based microplate reader analysis. It counts as cell-based.
A short description of data set [14]: AUClast in C57Bl/6 mouse at 3 mg/kg, iv and measured upto 8 hrs by LC-MS/MS analysis. It counts as ADME, organism-based. Further details: dose 3 mg/kg, time < 8 hrs, route iv. Particulars: in vivo.
The nature of data set [15]: Cmax in C57Bl/6 mouse plasma at 20 mg/kg, po and measured upto 8 hrs by LC-MS/MS analysis. It counts as ADME, organism-based. The arrangement: dose 20 mg/kg, time < 8 hrs, route po.
Data set [16] is described as follows: Oral bioavailability in C57Bl/6 mouse plasma at 20 mg/kg and measured upto 8 hrs by LC-MS/MS analysis. It counts as ADME, organism-based.
The nature of data set [17]: Half life in C57Bl/6 mouse at 3 mg/kg, iv and measured upto 8 hrs by LC-MS/MS analysis. Particulars: in vivo. It counts as ADME, organism-based.
In data set [18] the target is T2, Epidermal growth factor receptor. The experiment in a line: Inhibition of wild type EGFR (unknown origin).
The target in data set [19] is T1, Epidermal growth factor receptor. As to the kind of experiment: Inhibition of EGFR L858R/T790M mutant (unknown origin).
Data set [20] concerns the target T4, Epidermal growth factor receptor. As to the kind of experiment: Inhibition of human EGFR del19/T790M/C797S mutant assessed as enzyme remaining activity using poly-Glu-Tyr peptide substrate incubated for 2 hrs in presence of [gamma-33P]ATP by radiometric kinase assay.
For data set [21], the system named is BaF3. As to the kind of experiment: cells. Particulars: Mus musculus, BaF3, 72 h.
The test system of data set [22] is BaF3. The experiment in a line: cells. As to conditions: Mus musculus.
The subject of data set [23] is BaF3. The experiment in a line: cells. As to conditions: Mus musculus. The source holds these as a separate data set.

Where only a bound is given, the exact number is not on record here.

T1 sequence (P00533 25-1210 T790M/L858R limits assumed): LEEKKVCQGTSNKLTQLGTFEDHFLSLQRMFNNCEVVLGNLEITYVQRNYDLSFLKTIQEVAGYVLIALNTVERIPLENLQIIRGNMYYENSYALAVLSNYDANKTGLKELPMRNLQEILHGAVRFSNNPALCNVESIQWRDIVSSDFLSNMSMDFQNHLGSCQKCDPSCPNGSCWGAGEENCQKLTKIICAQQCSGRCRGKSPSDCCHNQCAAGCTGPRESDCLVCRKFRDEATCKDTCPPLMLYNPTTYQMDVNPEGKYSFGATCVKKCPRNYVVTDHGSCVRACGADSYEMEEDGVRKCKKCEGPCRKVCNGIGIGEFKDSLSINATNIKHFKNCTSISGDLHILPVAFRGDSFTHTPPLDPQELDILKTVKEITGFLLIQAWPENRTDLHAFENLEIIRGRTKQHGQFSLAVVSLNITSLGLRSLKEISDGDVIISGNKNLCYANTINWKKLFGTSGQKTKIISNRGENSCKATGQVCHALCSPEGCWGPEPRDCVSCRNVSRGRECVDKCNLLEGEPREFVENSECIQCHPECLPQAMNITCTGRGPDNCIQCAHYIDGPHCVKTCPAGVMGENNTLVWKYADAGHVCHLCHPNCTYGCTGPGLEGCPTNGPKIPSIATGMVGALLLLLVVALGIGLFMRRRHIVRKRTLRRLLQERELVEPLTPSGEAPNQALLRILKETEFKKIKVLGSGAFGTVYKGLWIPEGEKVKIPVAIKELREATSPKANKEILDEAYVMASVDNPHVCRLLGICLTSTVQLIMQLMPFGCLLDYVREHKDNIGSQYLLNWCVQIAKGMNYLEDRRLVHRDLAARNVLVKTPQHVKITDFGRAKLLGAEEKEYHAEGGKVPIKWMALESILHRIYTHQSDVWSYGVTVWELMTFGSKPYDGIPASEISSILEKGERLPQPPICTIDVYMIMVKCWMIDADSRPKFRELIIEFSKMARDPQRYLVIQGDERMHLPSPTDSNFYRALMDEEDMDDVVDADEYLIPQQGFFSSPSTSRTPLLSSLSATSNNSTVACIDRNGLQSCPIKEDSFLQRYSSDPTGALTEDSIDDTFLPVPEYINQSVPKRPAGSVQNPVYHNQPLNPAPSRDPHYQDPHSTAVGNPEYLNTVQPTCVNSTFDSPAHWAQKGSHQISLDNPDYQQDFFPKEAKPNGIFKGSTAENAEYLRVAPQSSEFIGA

Consider `CCC(=O)Nc1cccc(-c2c(-c3ccccc3)[nH]c3ncnc(OC)c23)c1`, for which the IC50 in data set [1] is 176 nM; in data set [2] it was 1200 nM.

As to `COc1cc(N2CCC(N(C)C)CC2)ccc1Nc1ncc(Cl)c(Nc2ccccc2P(C)(C)=O)n1`, the IC50 in [3] came to 59.1 nM; in data set [4] it was 28.4 nM.

For the compound `COc1ccc(-c2c3c4cc(OCCCN(C)C)c(OCCCN(C)C)cc4oc(=O)c3n3ccc4cc(O)c(OC)cc4c23)cc1O`, the IC50 in data set [5] worked out at 740 nM; in [6], 596 nM; in [7], 2860 nM; in data set [8], 658 nM.

With `CCCCOc1ncnc2[nH]c(-c3ccc(N4CCN(C)CC4)cc3)c(-c3cccc(NC(=O)CC)c3)c12`, the IC50 is less than 0.1 nM in data set [1], 9.4 nM in data set [9] and less than 0.1 nM in data set [2].

`CSc1nc(-c2ccc(F)cc2)c(-c2ccnc(Nc3ccccc3)c2)[nH]1`: the IC50 in [10] is more than 149 nM.

In [11], `COc1cc(N2CCC(N3CCN(CCO)CC3)CC2)ccc1Nc1ncc(Cl)c(Nc2ccccc2NS(C)(=O)=O)n1` gave an IC50 of 0.8 nM.

Turning to `CN1CCC2(CC1)CCN(c1ccc(Nc3ncc(Cl)c(Nc4ccccc4P(C)(C)=O)n3)cc1Br)CC2`, the IC50 in data set [12] and in data set [13] was less than 100 nM in each case.

`C=C(C)c1cnc(Nc2ccc(N3CCC4(CCN(C)CC4)CC3)c(C)c2)nc1Nc1ccccc1P(C)(C)=O`: the IC50 in data set [12] and in [13] was less than 100 nM throughout.

Take `COc1cc(N2CCC(N3CCN(C)CC3)CC2)ccc1Nc1ncc(Cl)c(Nc2ccccc2P(C)(C)=O)n1` [BRIGATINIB]: in data set [4], the IC50 was determined as 39.9 nM.

As to `O=C(Nc1nccs1)C(c1cc(F)ccc1O)N1Cc2ccc(-c3ccc(N4CCNCC4)cc3)cc2C1=O` (centres undefined), the AUC(0-t) at 8 h in data set [14] was 12100 ng·h/mL. For the same compound, in data set [15], the highest level (Cmax) was 1100 nM. Further, the bioavailability in data set [16] was 3%. In data set [17], this compound had a half-life of 3 h.

For `Oc1ccc(-c2nc(-c3ccc(F)cc3)c(-c3ccnc4c3CC(c3ccccc3)N4)[nH]2)cc1` (centres undefined), the figures for the IC50 in data set [18] and in [19] were 49.2 nM and 916 nM, respectively.

Regarding `N#Cc1ccc(O)c(-c2nc(NCc3cnccn3)c3ccccc3n2)c1`, the IC50 in data set [20] was found to be 17 nM.

`CCC(=O)Nc1cccc(-c2c(-c3ccc(N4CCN(C)CC4)cc3)[nH]c3ncnc(OC(C)C)c23)c1`: the IC50 in [1] amounted to 0.1 nM; in [9], 8.6 nM; in data set [2], 0.1 nM.

With `COC(=O)c1ccc(O)c(-c2nc(NCc3cccnc3)c3ccccc3n2)c1`, in data set [20], the half-maximal inhibitory concentration (IC50) stood at 46 nM.

`N#Cc1ccc(O)c(-c2nc(NCc3cccnc3)c3ccccc3n2)c1`: in data set [20], the concentration for half-maximal inhibition (IC50) stood at 17.9 nM.

Take `OCCCCc1ccc(-c2nc(-c3ccc(F)cc3)c(-c3ccnc4c3CC(c3ccccc3)N4)[nH]2)cc1` (centres undefined): the IC50 is less than 0.3 nM in data set [18], 8.39 nM in data set [19] and 8.83 nM in data set [10].

Regarding `Cc1cc(Nc2ncc(Cl)c(Nc3ccccc3P(C)(C)=O)n2)ccc1N1CCC2(CC1)CN(C)C2`, the IC50 in data set [12] and in data set [13] was less than 100 nM throughout.

`Cc1cc(Nc2ncc(Cl)c(Nc3ccccc3S(=O)(=O)C(C)C)n2)c(OC(C)C)cc1C1CCNCC1` [CERITINIB]: in data set [3], the IC50 turned out to be 780 nM.

Turning to `OCCc1ccc(-c2nc(-c3ccc(F)cc3)c(-c3ccnc4c3CC(c3ccccc3)N4)[nH]2)cc1` (centres undefined), the results for the IC50 in data set [18], in [19] and in data set [10] were less than 0.3 nM, 12.5 nM and 7.64 nM, respectively.

For `CCC(=O)Nc1cccc(-c2c(-c3ccc(N4CCN(C)CC4)cc3)[nH]c3ncn(C4CCCCC4)c(=O)c23)c1`, the IC50 in data set [1] was 0.4 nM; in [9], 22 nM; in data set [2], 0.4 nM.

Compound `O=C(Nc1nccs1)C(c1ccccc1)N1Cc2ccc(-c3ccc4[nH]ccc4c3)cc2C1=O` (centres undefined) came in with a 50% inhibitory concentration (IC50) in data set [21] of 900 nM.

For `COc1cc(N2CCC(N3CCN(C)CC3)CC2)ccc1Nc1ncnc(Nc2ccccc2S(=O)(=O)C(C)C)n1` [ASP-3026], the IC50 in [3] worked out at 1510 nM; in [4] it was 324 nM.

On to `CC(=O)N[C@H]1CC[C@@H](N2C(=O)N(c3ccccc3Cl)Cc3cnc(Nc4ccc(N5CCN(C)CC5)c(C)c4)nc32)CC1`, for which the IC50 was found to be 316 nM in data set [22] and 290 nM in [23].

The compound `COc1cc(N2CCC(N3CCN(C)CC3)CC2)ccc1Nc1ncc(Cl)c(Nc2ccccc2NS(C)(=O)=O)n1` came in with an IC50 in [11] of 0.2 nM.

With `Oc1ccccc1-c1nc(NCc2cccnc2)c2ccccc2n1`, the IC50 in data set [20] was 149 nM.

For the compound `CCC(=O)Nc1cccc(-c2c(-c3ccc(N4CCN(C)CC4)cc3)[nH]c3ncnc(OCC(C)C)c23)c1`, the IC50 was less than 0.1 nM in data set [1], 8.5 nM in data set [9] and 0.2 nM in data set [2].

For the compound `COc1cc(N2CCC(N)CC2)ccc1Nc1ncc(Cl)c(-c2c[nH]c3ccccc23)n1`, the concentration for half-maximal inhibition (IC50) worked out at 132 nM in [3] and 74.4 nM in data set [4].
